Assay results from EP3833345B1, “SMALL MOLECULE-INHIBITORS OF 6-PHOSPHOFRUCTO-1-KINASE FOR REDUCING LACTATE GENERATION BY CANCER CELLS” (Kemijski Institut, priority 2018, dated 2020).
Entries after “also recorded” stand apart in the source; their conditions may differ.

Columns and labels:
COLO 829 cells = test: cytotoxicity in COLO 829 cells (LDH kit); assay type: cell-based
Experimental: Lactate generation, growth yield and survival under normal and inhibitory conditions of three different tumorigenic cells lines were determined in more detailed measurements. […] Cytotoxicity was measured by the Lactate dehydrogenase (LDH) kit (Roche).

Jurkat cells [1] = test: Seahorse XF assay (ECAR and OCR) in Jurkat cells; assay type: cell-based, human; conditions: 100 µM added 24 hours before the experiment; treated versus untreated cells
Experimental: The efficiency of Inhibitors No. 3 and No. 9 was also tested by the determinations of glycolytic capacities in Jurkat cells in the presence and absence of inhibitors. For this purpose, Seahorse XF assay (Agilent Technology) was performed that enables non-destructive measurements of extracellular acidification rate (ECAR) and oxygen consumption rate (OCR) of tested cells. The cells were incubated in […] GlutaMAX medium with 10% FBS and 24 hours before the experiment inhibitors were added (100 µM). Non-adherent Jurkat cells (1×10^6 per mL) were stuck to the bottom of the wells by poly-I-lysine. The experiment was conducted essentially as recommended by Seahorse XF protocol and after 20 minutes of incubation, 1 µM of oligomycin A (ATP synthase inhibitor) and 0,25 µM of Carbonyl cyanide-4-(trifluoromethoxy)phenylhydrazone (FCCP) (mitochondrial oxidative phosphorylation uncoupler) were added to the cells. […] Reduced lactate excretion by the cells treated with both inhibitors might be responsible for reduced ECARs. Although the addition of oligomycin A and FCCP increased the extracellular acidification rate by the cells treated with both inhibitors, similar increase of ECAR was also observed in the untreated cells. […] It implies that inhibited PFK1 enzymes might reduce glycolytic flux and prevent the need for pyruvate reduction into lactate by re-oxidizing redundant cytosolic NADH. Under such conditions pyruvate can enter mitochondria, replenishing tri-carboxylic acids (TCA) cycle and fuelling oxidative respiration.

Jurkat cells [2] = test: lactate excretion by Jurkat cells (enzymatic L-lactic acid kit); assay type: cell-based, human
Experimental: The cells were incubated in 1 mL volume (24 well plates) at 5% CO2 and 37°C. The inhibitors were added in 100 µM concentration. As a control, equivalent amount of DMSO as used for the addition of inhibitors was supplemented to the medium. The tests started with 1×10^5 cells per mL. Extracellular lactate excreted by the Jurkat cells was measured in the supernatant of the growth medium after the cells were removed by centrifugation at 1500 rpm for 5 minutes. Lactate concentration was determined enzymatically using L-Lactatic acid kit (K-LATE, Megazyme, Ireland).
Measurements of lactate excretion in the tumorigenic Jurkat cells and the cells treated with two selected inhibitors at different concentrations were repeated by more detailed measurements. The growth conditions were identical to those described in Experiment 2. No significant difference in lactate excretion could be observed by the treated and untreated cells during the initial stage of growth that lasted for approximately 12 hours. Later on lactate excretion by the Jurkat cells ceased in the presence of both inhibitors.

[3] = target: T1, native human (85 kDa) 6-phosphofructo-1-kinase (PFK-M), nPFK-M (Homo sapiens, UniProt P08237); test: in vitro inhibition of purified recombinant native PFK-M enzyme; conditions: inhibitor range 10 - 50 µM, Figure 3
T1 sequence (P08237 1-780): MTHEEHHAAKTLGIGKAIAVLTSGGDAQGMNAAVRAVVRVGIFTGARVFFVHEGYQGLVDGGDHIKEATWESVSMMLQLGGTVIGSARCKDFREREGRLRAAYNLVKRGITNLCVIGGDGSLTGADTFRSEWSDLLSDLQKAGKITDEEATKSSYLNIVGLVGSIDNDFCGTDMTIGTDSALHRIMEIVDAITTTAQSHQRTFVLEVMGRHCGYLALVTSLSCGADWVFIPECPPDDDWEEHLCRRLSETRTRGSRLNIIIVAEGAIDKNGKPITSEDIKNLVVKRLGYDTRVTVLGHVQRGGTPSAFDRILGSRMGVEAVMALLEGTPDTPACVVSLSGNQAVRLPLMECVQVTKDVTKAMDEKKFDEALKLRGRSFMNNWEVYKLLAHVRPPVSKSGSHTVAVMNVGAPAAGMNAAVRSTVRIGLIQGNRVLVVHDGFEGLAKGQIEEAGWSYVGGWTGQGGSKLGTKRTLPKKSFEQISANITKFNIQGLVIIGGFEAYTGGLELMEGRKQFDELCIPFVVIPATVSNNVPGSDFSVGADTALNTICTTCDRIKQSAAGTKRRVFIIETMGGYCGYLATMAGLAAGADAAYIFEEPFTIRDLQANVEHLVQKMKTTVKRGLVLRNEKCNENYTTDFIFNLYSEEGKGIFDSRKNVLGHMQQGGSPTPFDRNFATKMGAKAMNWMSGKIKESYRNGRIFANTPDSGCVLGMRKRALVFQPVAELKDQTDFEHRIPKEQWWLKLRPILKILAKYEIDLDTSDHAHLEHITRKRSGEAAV
Experimental: Initially, all compounds were tested in vitro for inhibition of the purified human native enzyme (85 kDa) and modified cancer-specific shorter fragments (47 kDa) of muscle type PFK-M, followed by measurements of the purified native enzyme (85 kDa) and shorter fragments (70 kDa) of liver type PFK-L isoform.
Selected compounds were tested for in vitro inhibition of isolated recombinant human native and modified PFK-M enzymes.
The yeast transformant encoding the native human PFK-M enzyme was designated as nPFKM strain while transformant encoding cancer specific shorter fragments was designated as sfPFKM strain. […] For the enzymatic measurements, all the substrates (F6P and ATP), auxiliary enzymes, NADH and inhibitors dissolved in DMSO were added first to the buffer with PEG. After thorough mixing of the buffer with all ingredients, the enzymatic reaction started by the insertion of the purified recombinant enzymes.

Jurkat cells [4] = test: growth and survival of Jurkat cells (Countess, Trypan blue); assay type: cell-based
Experimental: The effects of both inhibitors were tested also on growth of the non-adherent Jurkat cells. Total amount of cells and the number of dead cells was determined by the Countess (Invitrogen, Carlsbad, CA). […].

MCF-10A cell line = test: lactate excretion by non-tumorigenic MCF-10A cells; assay type: cell-based
Experimental: The effect of Inhibitor No. 3 on lactate excretion was tested also on two non-tumorigenic cell lines. First, fast proliferating human embryonic kidney (HEK 293) cells were assessed for lactate formation in the presence of Inhibitor No. 3. RPMI 1640 GlutaMAX medium (Thermo Fisher) supplemented with 10% FBS was used as a growth medium. […] About 95 mg/L of lactate were detected after 72 hours of incubation by untreated cells (control) and by the cells growing in the presence of Inhibitor No. 3 (Figure 9a). Similar results were recorded also by non-tumorigenic MCF-10A cell line isolated form the epithelial cells of the mammary gland. The cells were cultivated in MEBM medium supplemented by additives that were obtained as a MEGM Kit from Lonza/Clonetics Corporation. Characteristically these cells grew slower than HEK 293 cells with correspondingly slower lactate excretion rate. After 96 hours of incubation, only about 27 mg/L of lactate was detected in the medium. Again, no influence of different concentrations of Inhibitor No. 3 on lactate generation could be observed (Figure 9b).

O=C(CSc1nnc(-c2ccc3c(c2)OCO3)o1)Nc1ccon1 [Inhibitor No. 3, 2-[(5-benzo[1,3]dioxol-5-yl-1,3,4-oxadiazol-2-yl)sulfanyl]-N-isoxazol-3-yl-acetamide]
average percentages of dead cells, COLO 829, sequential re-insertion (COLO 829 cells; sequential addition at 24-hour intervals, 92 hours, average over medium without and with inhibitor): 1,95±0,15% | average percent of dead COLO 829 cells (COLO 829 cells; single addition, average over control and different concentrations of inhibitor): 5,01±1,08% | ECAR and OCR values prior to the addition of oligomycin A and FCCP (Jurkat cells [1]): untreated Jurkat cells revealed higher ECAR and OCR values | time at which lactate production was averted (Jurkat cells [2]; inhibitor concentrations lower than 200 µM): about 24 hours | lactate excretion by the Jurkat cells (Jurkat cells [2]; preliminary test, 100 µM inhibitor, followed for 48 hours, versus DMSO control): Significantly lowered lactate excretions; also recorded: effectively prevented excretion | inhibition of the activity of native nPFK-M enzyme [3]: remarkably reduced also the activity of native nPFK-M enzyme | dead cells (Jurkat cells [4]; Jurkat cells stained with Tripan blue): 3,21±0,27% | effect on growth of Jurkat cells (total cell numbers) (Jurkat cells [4]; different concentrations, 72 hours): remarkable reduction of growth rate at concentrations higher than 25 µM | lactate detected in the medium, MCF-10A (MCF-10A cell line; after 96 hours of incubation, no influence of inhibitor concentration): about 27 mg/L | influence on lactate generation, MCF-10A (MCF-10A cell line; different concentrations, 96 hours): no influence
